Source: the NIST ThermoML archive (doi:10.1016/j.jct.2011.05.030)

Legend:
[1] = Molar enthalpy of transition or fusion; details: Crystal; DSC
[2] = Crystal; for vapor or sublimation pressure: Calculated from knudsen effusion weight loss; for Normal melting temperature: DTA

c1cc2ccc3ccc4ccc5cccc6c(c1)c2c3c4c56 [benzo[ghi]perylene]
Details	Molar enthalpy of transition or fusion [kcal/mol]	Normal melting temperature [°C]
[1]	3.9	–
[2]	–	272.50

[2]
Details	vapor or sublimation pressure [kPa]
399.1 K	4.16e-06
404 K	7e-06
409 K	1.15e-05
414.4 K	1.79e-05
419 K	2.83e-05
424 K	4.36e-05
429 K	6.54e-05
434.1 K	0.000104
439 K	0.000138
441 K	0.000207
449.1 K	0.000303
454.1 K	0.000432

c1ccc2cc3c(cc2c1)-c1cccc2cccc-3c12 [benzo[k]fluoranthene]
Details	Molar enthalpy of transition or fusion [kcal/mol]	Normal melting temperature [°C]
[1]	6.33	–
[2]	–	217.00

[2]
Details	vapor or sublimation pressure [kPa]
384.2 K	1.63e-05
389.2 K	2.42e-05
394.1 K	3.62e-05
399.1 K	5.62e-05
404 K	8.86e-05
409 K	0.000136
411 K	0.000157
419 K	0.000383
424 K	0.000557

c1ccc2c(c1)-c1ccc3ccc4cccc5cc-2c1c3c45 [indeno[1,2,3-cd]pyrene]
Details	Molar enthalpy of transition or fusion [kcal/mol]	Normal melting temperature [°C]
[1]	5.47	–
[2]	–	162.00

[2]
Details	vapor or sublimation pressure [kPa]
384.1 K	5.38e-06
389.1 K	7.96e-06
394.2 K	1.3e-05
399.2 K	2.19e-05
404.1 K	3.28e-05
409.1 K	5.33e-05
414.1 K	8.53e-05
419.1 K	0.000133
424.1 K	0.000201

c1ccc2c(c1)ccc1cc3c(ccc4ccccc43)cc12 [dibenz[a,h]anthracene]
Details	Molar enthalpy of transition or fusion [kcal/mol]	Normal melting temperature [°C]
[1]	5.86	–
[2]	–	269.50

[2]
Details	vapor or sublimation pressure [kPa]
399.2 K	5.11e-06
404 K	5.53e-06
409.1 K	9.22e-06
414 K	1.39e-05
419.1 K	3.95e-05
424.2 K	5.45e-05
429.2 K	8.89e-05
434.2 K	0.000112
439.1 K	0.000174
444.1 K	0.00028
449.1 K	0.000369

c1ccc2c(c1)-c1cccc3c1c-2cc1ccccc13 [benz[e]acephenanthrylene]
Details	Molar enthalpy of transition or fusion [kcal/mol]	Normal melting temperature [°C]
[1]	4.37	–
[2]	–	168.00

[2]
Details	vapor or sublimation pressure [kPa]
364.1 K	4.7e-06
369.3 K	8.12e-06
374.2 K	1.46e-05
377.2 K	1.9e-05
379.2 K	2.41e-05
382.2 K	3.21e-05
384.2 K	3.95e-05
387.2 K	5.4e-05
389.1 K	6.22e-05
392.1 K	8.51e-05
394.2 K	0.000101
397.1 K	0.000131
399.1 K	0.000159
404.1 K	0.00023
409 K	0.000356
414.1 K	0.000533
